How the values were obtained:
[1] = target: T1, Serotonin 3 (5-HT3) receptor (Rattus norvegicus) (UniProt P35563+Q9JJ16); assay: Antagonism of 5-HT-induced Von Bezold-Jarisch reflex in rat after intravenous administration of 30 ug/kg of HT (5-hydroxytryptamine 3 receptor antagonism); format: functional, organism-based
[2] = target: T2, Serotonin 3 (5-HT3) receptor (Rattus norvegicus, UniProt P35563+Q9JJ16); assay: Inhibition of [3H]GR-65630 binding to rat cortical membrane serotonin 3 receptor
T2 sequence (P35563 whole entry): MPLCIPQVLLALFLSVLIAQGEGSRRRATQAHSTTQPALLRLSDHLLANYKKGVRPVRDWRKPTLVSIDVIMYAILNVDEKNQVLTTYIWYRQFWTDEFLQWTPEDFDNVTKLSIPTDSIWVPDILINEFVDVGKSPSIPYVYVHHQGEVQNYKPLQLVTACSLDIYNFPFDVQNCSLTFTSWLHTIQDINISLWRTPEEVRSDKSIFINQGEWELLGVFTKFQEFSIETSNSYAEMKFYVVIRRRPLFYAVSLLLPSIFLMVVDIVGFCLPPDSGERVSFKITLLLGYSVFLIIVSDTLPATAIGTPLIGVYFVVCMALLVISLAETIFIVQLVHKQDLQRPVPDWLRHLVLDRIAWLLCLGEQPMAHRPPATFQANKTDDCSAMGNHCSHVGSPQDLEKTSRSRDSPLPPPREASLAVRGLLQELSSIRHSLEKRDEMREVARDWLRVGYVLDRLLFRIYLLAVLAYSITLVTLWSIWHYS
T2 sequence (Q9JJ16 whole entry): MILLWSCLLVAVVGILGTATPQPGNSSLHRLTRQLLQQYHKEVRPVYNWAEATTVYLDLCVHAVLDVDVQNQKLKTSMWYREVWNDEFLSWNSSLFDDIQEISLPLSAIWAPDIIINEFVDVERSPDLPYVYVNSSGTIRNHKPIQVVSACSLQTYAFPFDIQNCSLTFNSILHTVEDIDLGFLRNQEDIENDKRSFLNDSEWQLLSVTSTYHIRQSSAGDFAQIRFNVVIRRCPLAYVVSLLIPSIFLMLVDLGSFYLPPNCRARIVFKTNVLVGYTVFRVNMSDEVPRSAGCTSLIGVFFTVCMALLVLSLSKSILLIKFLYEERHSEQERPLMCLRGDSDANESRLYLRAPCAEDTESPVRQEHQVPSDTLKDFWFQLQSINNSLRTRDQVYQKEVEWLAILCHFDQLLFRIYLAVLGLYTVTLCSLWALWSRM

[3] = target: T2, Serotonin 3 (5-HT3) receptor; assay: Inhibition of 5-HT (1 ug/mL) induced depolarization in rat vagus nerve (5-hydroxytryptamine 3 receptor antagonism); format: functional, tissue-based
[4] = target: T1, Serotonin 3 (5-HT3) receptor (Rattus norvegicus); assay: Ability to antagonise the 5-HT- induced Von Bezold-Jarisch reflex in the rat after intravenous administration of 30 ug/kg of HT (5-hydroxytryptamine 3 receptor); format: functional, organism-based
[5] = target: T3, 5-hydroxytryptamine receptor 1A (Homo sapiens, UniProt P08908); assay: Tested for binding affinity for 5-hydroxytryptamine 1A receptor
T3 sequence (P08908 whole entry): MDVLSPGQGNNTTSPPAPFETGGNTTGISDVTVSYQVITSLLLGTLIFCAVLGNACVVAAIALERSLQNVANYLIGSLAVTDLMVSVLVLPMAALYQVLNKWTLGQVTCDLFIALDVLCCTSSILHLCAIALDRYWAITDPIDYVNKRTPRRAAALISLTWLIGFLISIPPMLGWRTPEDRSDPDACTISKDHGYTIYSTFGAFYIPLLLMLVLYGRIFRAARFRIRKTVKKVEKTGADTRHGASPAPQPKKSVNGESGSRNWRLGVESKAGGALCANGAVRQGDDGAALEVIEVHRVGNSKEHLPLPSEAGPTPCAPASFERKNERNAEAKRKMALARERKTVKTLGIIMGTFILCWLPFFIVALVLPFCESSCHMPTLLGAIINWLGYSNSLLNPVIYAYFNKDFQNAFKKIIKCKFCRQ

[6] = target: Serotonin 2 (5-HT2) receptor (Homo sapiens, UniProt P41595+P28223+P28335); assay: Tested for binding affinity for 5-hydroxytryptamine 2 receptor; format: protein assay
[7] = target: T4, D(2) dopamine receptor (Homo sapiens, UniProt P14416); assay: Tested for binding affinity for Dopamine D2 receptors
T4 sequence (P14416 whole entry): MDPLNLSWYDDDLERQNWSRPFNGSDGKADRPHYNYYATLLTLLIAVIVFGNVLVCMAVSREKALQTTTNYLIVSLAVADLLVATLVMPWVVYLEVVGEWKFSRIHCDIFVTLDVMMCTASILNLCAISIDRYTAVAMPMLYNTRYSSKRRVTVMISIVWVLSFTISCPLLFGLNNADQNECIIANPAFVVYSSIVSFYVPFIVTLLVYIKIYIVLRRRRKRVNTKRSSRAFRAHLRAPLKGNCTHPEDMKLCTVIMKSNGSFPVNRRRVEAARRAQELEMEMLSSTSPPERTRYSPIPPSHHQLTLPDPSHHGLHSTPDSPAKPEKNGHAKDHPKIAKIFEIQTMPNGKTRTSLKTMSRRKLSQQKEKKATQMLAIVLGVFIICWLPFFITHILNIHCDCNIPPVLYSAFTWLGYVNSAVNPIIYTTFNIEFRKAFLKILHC

[8] = target: T4, D(2) dopamine receptor; assay: Tested for binding affinity for Dopamine D2 receptor
[9] = target: T2, Serotonin 3 (5-HT3) receptor; assay: Tested for inhibition of binding of [3H]GR-65630 to rat cortical membranes, expressed as IC50; format: cell membranes, Membrane

| Compound | ED50 [1] [µg/kg] | IC50 [2] [nM] | IC50 [3] [nM] | ED50 [4] [µg/kg] | other results |
| --- | --- | --- | --- | --- | --- |
| Cc1nn2ccccc2c1C(=O)NC1CC2CCCC(C1)N2C (stereo not given) | 6 | 64 | 100 |  |  |
| O=C(N[C@H]1CN2CCC1C2)c1cnn2ccccc12 (stereo not given in full) | 2 | 52 | 124 |  |  |
| Cc1nn2ncccc2c1C(=O)NC1CC2CCC(C1)N2C (stereo not given) |  | 122 |  | 50 |  |
| O=C(N[C@@H]1CN2CC[C@@H]1C2)c1cnn2ccccc12 | 8 | 72 | 419 |  |  |
| CN1C2CCC1CC(OC(=O)c1cnn3ccccc13)C2 (stereo not given) | 2 | 28 |  |  | IC50 [5]: > 10000 nM; IC50 [6]: > 10000 nM; IC50 [7]: > 10000 nM |
| CN1[C@@H]2CC[C@H]1C[C@@H](OC(=O)c1c[nH]c3ccccc13)C2 [TROPISETRON] | 0.5 | 3.1 | 1.4 |  |  |
| CN1C2CCC1CC(NC(=O)c1cnn3ccccc13)C2 (stereo not given) | 0.74 | 34 | 105 |  | IC50 [8]: > 10000 nM; IC50 [5]: > 10000 nM; IC50 [6]: > 10000 nM |
| Cc1nn2ncccc2c1C(=O)NC1CC2CCCC(C1)N2C (stereo not given) |  | > 300 |  | > 50 |  |
| Cc1nn2ccccc2c1C(=O)NC1CC2CCC(C1)N2C (stereo not given) |  | 26 | 42 | 1.2 |  |
| CN1C2CCCC1CC(NC(=O)c1cnn3ccccc13)C2 (stereo not given) | 5 | 170 | 300 |  |  |
| O=C(NC1CN2CCC1CC2)c1cnn2ccccc12 (stereo not given) | 1 | 75 | 83 |  |  |
| CN1C2CCC1CC(NC(=O)c1cnn3ncccc13)C2 (stereo not given) | 30 | 429 |  |  |  |
| CN1C2CCCC1CC(NC(=O)c1cnn3ncccc13)C2 (stereo not given) |  |  |  | > 100 | IC50 [9]: 818 nM |

Source: ChEMBL document CHEMBL1127772, “Pyrazolo[1,5-a]pyridines and pyrazolo[1,5-b]pyridazines as 5ht3-antagonists” (Bioorg Med Chem Lett, 1994)
